Results on five compounds are retold here after US10357537B2, “Cyclotides as immunosuppressive agents” (priority 2011, dated 2019).

Series [1] relates to activated human primary PBMC. The method, then:
(§1) After cultivation, the cells were assessed in bioassays as described in the text.
The levels of apoptosis were determined using the annexin V-FITC apoptosis detection kit (eBioscience, Frankfurt, Germany) according to the manufacturer's instructions. After annexin V staining, propidium iodide solution (PI; eBioscience) was added and the cells were incubated in the dark, followed by a flow cytometric analysis to determine the amount of apoptosis and necrosis. CPT (30 μg/mL) and Triton-X 100 (0.5%) was used as positive controls for apoptosis and necrosis, respectively.
Cellular apoptotic and necrotic hallmarks were measured by using inter-nucleosomal DNA fragmentation (subG1^+ cells) assay and phosphatidylserine surface analysis through a single and combinatory annexin V and propidium iodide staining. This double staining process allowed the discrimination between viable (annexin^−/PI^−), apoptotic (annexin^+/PI^− and annexin^+/PI^+) or necrotic (annexin^−/PI^+) cells.

Series [2] concerns activated human primary PBMC. The experiment in a line: Anti-proliferative CFSE cell division assay on anti-CD3/CD28-activated PBMC. As to conditions: for IC50: read-out: IC50 (μM) ± STDEV, inhibition of PBMC proliferation, PBMCs, anti-CD3/28 mAbs, 72 h, n.a. = not active; for cytotoxicity in PBMC proliferation assay: at 14 μM. As to the method:
Human peripheral blood mononuclear cells (PBMC) were isolated from the blood of healthy adult donors obtained from the Blood Transfusion Centre (University Medical Center, Freiburg, Germany). Venous blood was centrifuged on a LymphoPrep™ gradient (density: 1.077 g/cm^3, 20 min, 500×g, 20° C.; Progen, Heidelberg, Germany). Afterwards cells were washed twice with medium and cell viability and concentration was determined using the trypan blue exclusion test. PBMC were cultured in RPMI 1640 medium supplemented with 10% heat-inactivated fetal calf serum (PAA, Coelbe, Germany), 2 mM L-glutamine, 100 U/mL penicillin and […] (all from Invitrogen, Karlsruhe, Germany). The cells were cultured at 37° C. in a humidified incubator with a 5% CO2/95% air atmosphere. All experiments conducted on human material were approved by the Ethics committee of the University of Freiburg.
as §1
For cell proliferation and cell division tracking analysis PBMC were harvested and washed twice in cold PBS and resuspended in PBS at a concentration of 5×10^6 cells/mL. Cells were incubated for 10 min at 37° C. with carboxyfluorescein diacetate succinimidyl ester (CFSE; 5 μM: Sigma-Aldrich, Taufkirchen, Germany). The staining reaction was stopped by washing twice with complete medium. Afterwards, the cell division progress was analysed using flow cytometric analysis.
(§2) The anti-proliferative effect of cyclotide mutants/variants was tested according to Example 5. […] Afterwards the cell proliferation was assessed by analysing cell division using flow cytometric-based histogram analysis.

In series [3] the test system is CD3 purified T-lymphocytes. As to the kind of experiment: Anti-proliferative CFSE assay on magnetic-purified CD3+ lymphocytes. Particulars: for IC50: read-out: IC50 (μM) ± STDEV, inhibition of CD3 purified T-lymphocyte proliferation, CD3 purified lymphocytes, anti-CD3/28 mAbs, 72 h. As to the method:
as §2

Read-outs that look alike come from different tables or passages of the source. Bridge positions count the residues as written; N and C are the ends. Peptide text beside a SMILES is read from it.

As for Triton-X 100, in series [1], the induction of necrosis result was “significantly increased the fractions of these cells”.

In the case of `CC[C@H](C)[C@H](NC(=O)CN)C(=O)NCC(=O)N[C@@H](C)C(=O)N[C@H](C(=O)N[C@@H](CC(C)C)C(=O)N[C@@H](CCCCN)C(=O)N[C@H](C(=O)N[C@@H](CC(C)C)C(=O)N[C@H](C(=O)N[C@H](C(=O)NCC(=O)N[C@@H](CC(C)C)C(=O)N1CCC[C@H]1C(=O)N[C@@H](C)C(=O)N[C@@H](CC(C)C)C(=O)N[C@H](C(=O)N[C@@H](CO)C(=O)N[C@@H](Cc1c[nH]c2ccccc12)C(=O)N[C@H](C(=O)N[C@@H](CCCCN)C(=O)N[C@@H](CCCNC(=N)N)C(=O)N[C@@H](CCCCN)C(=O)N[C@@H](CCCNC(=N)N)C(=O)N[C@@H](CCC(N)=O)C(=O)N[C@@H](CCC(N)=O)C(N)=O)[C@@H](C)CC)[C@@H](C)CC)[C@@H](C)O)[C@@H](C)O)C(C)C)C(C)C` [melittin], the “cell division / proliferation of activated PBMC (in words)” value in series [2] (CFSE, flow cytometry, extract 50-100 μg/mL, cyclotides 1.8-14 μM, melittin 0.05-1.6 μM) is listed as “decrease of proliferating PBMC at 1.6 μM”. Also, the induction of necrosis entry in series [1] (kalata B1 14 μM vs untreated control, Triton-X 100, melittin high concentrations) was “slight effect on necrosis induction at high concentrations”. Moreover, the induction of apoptosis entry in series [1] (kalata B1 1.8-14 μM, CPT 30 μg/mL, melittin up to 1.6 μM) is given as “mainly due to the induction of apoptosis”.

As to `CC[C@H](C)[C@@H]1NC(=O)[C@@H]2CCCN2C(=O)[C@H](Cc2c[nH]c3ccccc23)NC(=O)[C@H]([C@@H](C)O)NC(=O)[C@@H]2CSSC[C@@H]3NC(=O)[C@H]([C@@H](C)O)NC(=O)[C@H](CCC(=O)O)NC(=O)CNC(=O)[C@@H]4CSSC[C@H](NC(=O)CNC(=O)[C@@H]5CCCN5C(=O)[C@H]([C@@H](C)O)NC(=O)[C@H](CC(N)=O)NC(=O)[C@H](CSSC[C@H](NC1=O)C(=O)N[C@@H]([C@@H](C)O)C(=O)N[C@@H](CCCNC(=N)N)C(=O)N[C@@H](CC(=O)O)C(=O)NCC(=O)N[C@@H](CC(C)C)C(=O)N1CCC[C@H]1C(=O)N[C@@H](C(C)C)C(=O)N4)NC(=O)[C@H]([C@@H](C)O)NC(=O)CNC(=O)CNC(=O)[C@H](Cc1ccccc1)NC3=O)C(=O)N[C@@H](CO)C(=O)N2` [Kalata B2] (cyclo(CFGGTCNTPGCSCTWPICTRDGLPVCGET); disulfide 1-13, 6-18, 11-26), the IC50 in series [2] (cyclotides 1.8-14 μM) amounted to 0.2 ± 0.1 µM; in series [3], 0.6 ± 0.02 µM.

For the compound `CC(C)C[C@@H]1NC(=O)[C@H](CCCCN)NC(=O)[C@H](CC(N)=O)NC(=O)[C@H](CCCNC(=N)N)NC(=O)[C@H]([C@@H](C)O)NC(=O)[C@@H]2CSSC[C@@H]3NC(=O)[C@H]([C@@H](C)O)NC(=O)CNC(=O)CNC(=O)[C@H](C(C)C)NC(=O)[C@@H]4CSSC[C@H](NC(=O)[C@H](CCCCN)NC(=O)[C@H](CSSC[C@H](NC(=O)[C@H](C(C)C)NC(=O)[C@@H]5CCCN5C1=O)C(=O)NCC(=O)N[C@@H](CCC(=O)O)C(=O)N[C@@H]([C@@H](C)O)C(=O)N4)NC(=O)CNC(=O)[C@@H]1CCCN1C(=O)[C@H]([C@@H](C)O)NC(=O)[C@H](CC(N)=O)NC3=O)C(=O)N[C@@H](CO)C(=O)N[C@@H](Cc1c[nH]c3ccccc13)C(=O)N1CCC[C@H]1C(=O)N[C@@H](C(C)C)C(=O)N2` [T20K, G1K, Kalata T20K, G1K] (cyclo(CGETCVGGTCNTPGCKCSWPVCTRNKLPV); disulfide 1-15, 5-17, 10-22), the “cytotoxicity in PBMC proliferation assay” value in series [2] is “(cytotoxic)”; in series [2] (listed as T20K+G1K), “cytotoxic”. In addition, the “cytotoxicity in CD3 purified lymphocyte proliferation assay” value in series [3] (at 14 μM) was “(cytotoxic)”. In series [3], the IC50 stood at 1.1 ± 0.7 µM.

As for `CC[C@@H](C)[C@H]1NC(=O)[C@H]2CCCN2C(=O)[C@@H](Cc2c[nH]c3ccccc23)NC(=O)[C@@H]([C@H](C)O)NC(=O)[C@H]2CSSC[C@H]3NC(=O)[C@@H]([C@H](C)O)NC(=O)[C@@H](CCC(=O)O)NC(=O)CNC(=O)[C@H]4CSSC[C@@H](NC(=O)CNC(=O)[C@H]5CCCN5C(=O)[C@@H]([C@H](C)O)NC(=O)[C@@H](CC(N)=O)NC(=O)[C@@H](CSSC[C@@H](NC1=O)C(=O)N[C@H]([C@H](C)O)C(=O)N[C@H](CCCNC(=N)N)C(=O)N[C@H](CC(=O)O)C(=O)NCC(=O)N[C@H](CC(C)C)C(=O)N1CCC[C@@H]1C(=O)N[C@H](C(C)C)C(=O)N4)NC(=O)[C@@H]([C@H](C)O)NC(=O)CNC(=O)CNC(=O)[C@@H](Cc1ccccc1)NC3=O)C(=O)N[C@H](CO)C(=O)N2` [all-D kalata B2, D-kalataB2], the IC50 in series [2] (cyclotides 1.8-14 μM) was determined as 2.3 ± 0.8 µM; in series [3], 2.9 ± 0.4 µM.
